Laboratory results as given in patent US4317768A, “Dihydropyridine derivatives as stabilizers for vinyl chloride polymers” (priority 1977, dated 1982).
Entries after “also recorded” stand apart in the source; their conditions may differ.

Columns and labels:
[1] = Colour of the resin after each passage in a blower-extruder; settings: blower-extruder
Description: (2) Examination of the colour of the resin after each passage (3 in all) in a blower-extruder, the mould being a 250 ml cylindrical flask.
Four resins where tested, the first containing 0.2% of 2-phenyl-indole and the others 0.2%, 0.03% and 0.015% of compound 1 respectively.

[2] = Static thermostability (GARDNER method), rigid PVC sheets, 210° C., 0.3 part stabilizer; settings: for coloration of the resins, in words: 0 to 3 minutes
Method in brief: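 Rigid sheets calendered at 160° C. from powdered PVC resin with 0.3 part by weight stabilizer (dihydropyridine or 2-phenyl-indole reference) plus usual ingredients. Sheets heated in oven at 210° C., removed every three minutes over 21 minutes until incipient carbonization. Coloration scored against GARDNER scale reference figures.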

[3] = Static thermostability (GARDNER method), rigid PVC sheets, 185° C., 0.3 part stabilizer
Method in brief: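 Rigid PVC sheets, calendered at 160° C with 0.3 part stabilizer and usual additives, were heated at 185° C. Samples came out every 6 min to 24 min, then every 3 min up to 42 min or carbonization, and colour was scored on the GARDNER scale.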

[4] = Polarographic study of the oxidation potential; assay type: physicochemical; settings: acetonitrile, 0.1 M lithium perchlorate, vitrous carbon electrode, calomel reference
Text: By a polarographic study of their oxidation potential, compared to well-known antioxidants such as 2,6-diterbutyl-4-methyl-phenol, 2-terbutyl-4-methoxy-phenol, 4-methoxy-phenol and hydroquinone.
Reference electrode: Calomel electrode containing a saturated solution of anhydrous lithium perchlorate as bridge liquid.
Working electrode: Vitrous carbon rotating electrode (2,500 r.p.m.)
Counter-electrode: Platinum electrode
Acetonitrile containing less than 0.1% of water and presenting no polarographic waves between -2.5 V and +2.5 V.
Anhydrous lithium perchlorate containing less than 1% of water.
A 0.1 M solution of lithium perchlorate in acetonitrile, treated and preserved on a 4 A molecular sieve.
Amplitude of exploration: 0 to 2 V
Speed of exploration: 10 mV/second
Sensitivity: 1.25 μA to 50 μA
Mean concentration: about 0.3×10^-3 mol/liter
Between each measurement, the vitrous carbon electrode and the platinum electrode were carefully cleaned with Joseph paper.

[5] = Photostabilizing power, sheets exposed to the sun, co-polymer (a)
Description: (§1) The sheets were exposed to the sun and their colorations were also determined according to the GARDNER method.

[6] = Thermostability, flexible co-polymer (b), Metrastat oven 160° C.; settings: 0.2 part
Description: (§2) The study of the static thermostability of vinyl co-polymers was carried out according to the GARDNER method described above and, also in a more detailed manner in British Patent No. 1,489,685.
(b) Flexible co-polymer vinyl chloride-vinyl acetate.
(§3) The following compound was prepared:
The resin was allowed to gel for 5 minutes at 120° C. and the sheets were heated at 160° C. in a Metrastat oven.

[7] = Photostabilizing power, PVC plates exposed to the sun, GARDNER scale
Method in brief: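 Stabilized polyvinyl chloride plates, resin mixed on cylinders at 160° C, were exposed to sunlight alongside an unstabilized plate. Colour was read on the GARDNER scale after 6 and 12 hours. A + or − sign marks a half-unit step.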

[8] = Photostabilizing power, sheets exposed to the sun, rigid co-polymer (b)
Description: as §1

[9] = Comparison with 2-phenyl-indole, vinyl chloride-vinylidene chloride co-polymer, 210° C.; settings: 0.3 part
Description: A second test was made using the following compound:
The sheets were heated in a ventilated oven at 210° C. and the following results were obtained: […]

[10] = Comparison with stabilizer G1, 0.1 part, 185° C.
Description: A test was also carried out with the following compound:
Another test was made with the same resin but containing 0.1 part of stabilizer.

[11] = Thermostability, flexible co-polymer (c), Metrastat oven 160° C.; settings: 0.3 part
Description: as §2
(c) Flexible co-polymer vinyl chloride-vinyl acetate
as §3
The sheets were heated in a Metrastat oven at 160° C. and the following results were obtained: […]

[12] = Comparison with stabilizer G1, 0.3 part, 185° C.

C=CCOC(=O)C1=C(C)NC(C)=C(C(=O)OCC=C)C1 [Compound 1, 2,6-Dimethyl-3,5-dicarboallyloxy-1,4-dihydropyridine]
stability of colour compared to 2-phenyl-indole, in words [1]: markedly superior; also recorded: at all times superior to 2-phenyl-indole used at a concentration of 0.2%
stability of colour compared to 2-phenyl-indole, in words ([1]; listed as compound 1): excellent behaviour
coloration, GARDNER scale ([2]; 0 min): 1
coloration of the resins, in words [2]: considerably less
coloration, GARDNER scale ([2]; 3 min): 1
thermostabilizing power compared to 2-phenyl-indole, in words ([2]; 210° C.): greatly superior to 2-phenyl-indole
coloration, GARDNER scale ([2]; 6 min): 2
coloration, GARDNER scale ([2]; 9 min): 4
coloration, GARDNER scale ([2]; 12 min): 7
coloration, GARDNER scale ([2]; 15 min): Burnt
coloration, GARDNER scale ([3]; 0 min): 1
coloration, GARDNER scale ([3]; 6 min): 1
coloration, GARDNER scale ([3]; 12 min): 3
coloration, GARDNER scale ([3]; 18 min): 3
coloration, GARDNER scale ([3]; 24 min): 5
coloration, GARDNER scale ([3]; 27 min): 7
coloration, GARDNER scale ([3]; 30 min): 10
coloration, GARDNER scale ([3]; 33 min): 10.5
coloration, GARDNER scale ([3]; 36 min): 11
coloration, GARDNER scale ([3]; 39 min): 16
coloration, GARDNER scale ([3]; 42 min): Burnt
Oxidation potential [4]: 0.75 ± 0.01 volts
Colour in GARDNER degrees ([5]; After 24 hours): 1 GARDNER degrees
Colour in GARDNER degrees ([5]; Time 0): 1 GARDNER degrees
coloration, GARDNER scale ([6]; 0 min): 1
coloration, GARDNER scale ([6]; 30 min): 2
coloration, GARDNER scale ([6]; 40 min): 6
coloration, GARDNER scale ([6]; 50 min): 12
coloration, GARDNER scale ([6]; 60 min): 15
Coloration of the plates GARDNER ([7]; exposure to sun 0): 1
Coloration of the plates GARDNER ([7]; exposure to sun 6h): 1
Coloration of the plates GARDNER ([7]; exposure to sun 12h): 1.5
Colour in GARDNER degrees ([8]; After 24 hours): 2 GARDNER degrees
Colour in GARDNER degrees ([8]; Time 0): 1 GARDNER degrees
coloration, GARDNER scale ([9]; 0 min): 1
coloration, GARDNER scale ([9]; 3 min): 1
coloration, GARDNER scale ([9]; 6 min): 2
coloration, GARDNER scale ([9]; 9 min): 4
coloration, GARDNER scale ([9]; 12 min): 10
coloration, GARDNER scale ([10]; 0 min): 1
coloration, GARDNER scale ([10]; 2 min): 1
coloration, GARDNER scale ([10]; 4 min): 2
coloration, GARDNER scale ([10]; 6 min): 4
coloration, GARDNER scale ([10]; 8 min): 8
coloration, GARDNER scale ([10]; 10 min): 11
coloration, GARDNER scale ([10]; 12 min): 12
coloration, GARDNER scale ([10]; 14 min): 13
coloration, GARDNER scale ([11]; 0 min): 1
coloration, GARDNER scale ([11]; 10 min): 1
coloration, GARDNER scale ([11]; 20 min): 2
coloration, GARDNER scale ([11]; 30 min): 4
coloration, GARDNER scale ([11]; 40 min): 5.5
coloration, GARDNER scale ([11]; 50 min): 6
coloration, GARDNER scale ([11]; 60 min): 7

CC1=C(C(=O)OCc2ccccc2)CC(C(=O)OCc2ccccc2)=C(C)N1 [Compound 21, 2,6-Dimethyl-3,5-dicarbobenzyloxy-1,4-dihydropyridine]
coloration, GARDNER scale ([2]; 0 min): 1
coloration of the resins, in words [2]: considerably less
coloration, GARDNER scale ([2]; 3 min): 1
coloration, GARDNER scale ([2]; 6 min): 2
coloration, GARDNER scale ([2]; 9 min): 3
coloration, GARDNER scale ([2]; 12 min): 5.5
coloration, GARDNER scale ([2]; 15 min): 14
coloration, GARDNER scale ([2]; 18 min): Burnt
coloration, GARDNER scale ([3]; 0 min): 1
coloration, GARDNER scale ([3]; 6 min): 1
coloration, GARDNER scale ([3]; 12 min): 2
coloration, GARDNER scale ([3]; 18 min): 10
coloration, GARDNER scale ([3]; 24 min): 12
coloration, GARDNER scale ([3]; 27 min): 12
coloration, GARDNER scale ([3]; 30 min): 13
coloration, GARDNER scale ([3]; 33 min): 14
coloration, GARDNER scale ([3]; 36 min): Burnt
Oxidation potential [4]: 0.73 ± 0.01 volts
Colour in GARDNER degrees ([5]; After 24 hours): 1 GARDNER degrees
Colour in GARDNER degrees ([5]; Time 0): 1 GARDNER degrees
coloration, GARDNER scale ([6]; 0 min): 1
coloration, GARDNER scale ([6]; 30 min): 1
coloration, GARDNER scale ([6]; 40 min): 3
coloration, GARDNER scale ([6]; 50 min): 8
coloration, GARDNER scale ([6]; 60 min): 15
Coloration of the plates GARDNER ([7]; exposure to sun 0): 1
Coloration of the plates GARDNER ([7]; exposure to sun 6h): 1
Coloration of the plates GARDNER ([7]; exposure to sun 12h): 1.5
coloration, GARDNER scale ([12]; 0 min): 1
coloration, GARDNER scale ([12]; 2 min): 1
coloration, GARDNER scale ([12]; 4 min): 2
coloration, GARDNER scale ([12]; 6 min): 4
coloration, GARDNER scale ([12]; 8 min): 7
coloration, GARDNER scale ([12]; 10 min): 12
coloration, GARDNER scale ([12]; 12 min): 16
coloration, GARDNER scale ([12]; 14 min): 18
Colour in GARDNER degrees ([8]; After 24 hours): 3.5 GARDNER degrees
Colour in GARDNER degrees ([8]; Time 0): 1.5 GARDNER degrees
coloration, GARDNER scale ([9]; 0 min): 1.5
coloration, GARDNER scale ([9]; 3 min): 2
coloration, GARDNER scale ([9]; 6 min): 2
coloration, GARDNER scale ([9]; 9 min): 3
coloration, GARDNER scale ([9]; 12 min): 7
coloration, GARDNER scale ([9]; 15 min): 15
coloration, GARDNER scale ([10]; 0 min): 1
coloration, GARDNER scale ([10]; 2 min): 1
coloration, GARDNER scale ([10]; 4 min): 2
coloration, GARDNER scale ([10]; 6 min): 4
coloration, GARDNER scale ([10]; 8 min): 11
coloration, GARDNER scale ([10]; 10 min): 13
coloration, GARDNER scale ([10]; 12 min): 17
coloration, GARDNER scale ([11]; 0 min): 1
coloration, GARDNER scale ([11]; 10 min): 1
coloration, GARDNER scale ([11]; 20 min): 2
coloration, GARDNER scale ([11]; 30 min): 5
coloration, GARDNER scale ([11]; 40 min): 6
coloration, GARDNER scale ([11]; 50 min): 7
coloration, GARDNER scale ([11]; 60 min): 12
